In the test the target is T1, SOS1 (Homo sapiens, UniProt Q07889).
T1 sequence (Q07889 1-1333): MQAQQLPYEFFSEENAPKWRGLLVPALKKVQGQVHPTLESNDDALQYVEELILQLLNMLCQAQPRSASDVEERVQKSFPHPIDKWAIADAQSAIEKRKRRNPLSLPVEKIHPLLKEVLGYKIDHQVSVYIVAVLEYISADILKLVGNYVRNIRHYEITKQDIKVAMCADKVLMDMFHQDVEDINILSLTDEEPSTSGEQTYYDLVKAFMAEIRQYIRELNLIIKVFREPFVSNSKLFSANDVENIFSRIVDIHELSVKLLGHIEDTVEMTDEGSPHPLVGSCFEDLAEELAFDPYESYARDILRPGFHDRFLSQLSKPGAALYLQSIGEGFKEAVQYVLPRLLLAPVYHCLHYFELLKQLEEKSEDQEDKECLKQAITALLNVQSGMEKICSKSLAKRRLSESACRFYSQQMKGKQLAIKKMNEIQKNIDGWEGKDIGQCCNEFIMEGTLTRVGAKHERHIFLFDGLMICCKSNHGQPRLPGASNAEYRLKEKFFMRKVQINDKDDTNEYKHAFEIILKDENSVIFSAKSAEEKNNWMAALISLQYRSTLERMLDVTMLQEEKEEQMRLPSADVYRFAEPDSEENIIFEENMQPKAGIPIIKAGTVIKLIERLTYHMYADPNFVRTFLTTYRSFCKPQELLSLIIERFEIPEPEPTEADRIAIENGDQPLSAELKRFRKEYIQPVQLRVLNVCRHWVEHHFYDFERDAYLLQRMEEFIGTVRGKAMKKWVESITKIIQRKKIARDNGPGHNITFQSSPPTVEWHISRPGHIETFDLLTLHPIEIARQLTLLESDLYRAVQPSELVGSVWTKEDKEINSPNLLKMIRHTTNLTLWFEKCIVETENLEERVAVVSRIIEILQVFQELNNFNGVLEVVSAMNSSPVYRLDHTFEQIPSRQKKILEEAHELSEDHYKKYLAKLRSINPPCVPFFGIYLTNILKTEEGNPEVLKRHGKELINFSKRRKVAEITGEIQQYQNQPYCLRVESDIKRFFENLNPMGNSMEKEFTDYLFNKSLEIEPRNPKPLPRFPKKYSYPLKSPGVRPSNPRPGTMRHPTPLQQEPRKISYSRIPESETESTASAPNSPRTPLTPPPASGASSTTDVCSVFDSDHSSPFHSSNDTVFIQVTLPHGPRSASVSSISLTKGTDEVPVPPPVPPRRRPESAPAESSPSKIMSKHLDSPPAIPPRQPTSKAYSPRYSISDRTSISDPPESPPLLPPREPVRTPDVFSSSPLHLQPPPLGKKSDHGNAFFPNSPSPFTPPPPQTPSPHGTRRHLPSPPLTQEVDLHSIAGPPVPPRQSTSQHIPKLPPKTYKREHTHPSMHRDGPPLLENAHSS
The test is described as follows: biochemical.
By IC50 is commonly meant the midpoint of a concentration-inhibition curve. Regarding `C[C@@H](Nc1nnc(-n2ccnc2)c2cc(=O)n(C3CC3)cc12)c1cccc(C(F)F)c1F` [Example 31, (R)-6-cyclopropyl-4-((1-(3-(difluoromethyl)-2-fluorophenyl)ethyl)amino)-1-(1H-imidazol-1-yl)pyrido[3,4-d]pyridazin-7(6H)-one], the midpoint of inhibition, the IC50, lay at 19.5 nM.
On to `C[C@@H](Nc1nnc(-n2nccn2)c2cc(=O)n(C3CC3)cc12)c1cccc(C(F)F)c1F` [Example 32, (R)-6-cyclopropyl-4-((1-(3-(difluoromethyl)-2-fluorophenyl)ethyl)amino)-1-(2H-1,2,3-triazol-2-yl)pyrido[3,4-d]pyridazin-7(6H)-one], for which it took 25.5 nM to reach half-maximal inhibition (IC50).
Then `C[C@@H](Nc1nnc(-n2cccn2)c2cc(=O)n(C3(C)CC3)cc12)c1cccc(C(F)F)c1F` [Example 33, (R)-4-((1-(3-(difluoromethyl)-2-fluorophenyl)ethyl)amino)-6-(1-methylcyclopropyl)-1-(1H-pyrazol-1-yl)pyrido[3,4-d]pyridazin-7(6H)-one], with 22.5 nM; and `C[C@@H](Nc1nnc(-n2ccnc2)c2cc(=O)n(C3(C)CC3)cc12)c1cccc(C(F)F)c1F` [Example 34, (R)-4-((1-(3-(difluoromethyl)-2-fluorophenyl)ethyl)amino)-1-(1H-imidazol-1-yl)-6-(1-methylcyclopropyl) pyrido[3,4-d]pyridazin-7(6H)-one], with 14.4 nM; and `Cc1c(C#N)cccc1[C@@H](C)Nc1nnc(N2CC3CC3C2)c2cc(=O)n(C3CC3)cc12` (stereo partly drawn) [Example 35, 3-((1R)-1-((1-(3-azabicyclo[3.1.0]hexan-3-yl)-6-cyclopropyl-7-oxo-6,7-dihydropyrido[3,4-d]pyridazin-4-yl)amino)ethyl)-2-methylbenzonitrile], with 14.8 nM.
For the molecule `Cc1c(C#N)cccc1[C@@H](C)Nc1nnc(N2CCC2)c2cc(=O)n(C3CC3)cc12` [Example 36, (R)-3-(1-((1-(azetidin-1-yl)-6-cyclopropyl-7-oxo-6,7-dihydropyrido[3,4-d]pyridazin-4-yl)amino)ethyl)-2-methylbenzonitrile], the IC50 is 10.7 nM.
`Cc1c(C#N)cccc1[C@@H](C)Nc1nnc(N2CCCC2)c2cc(=O)n(C3CC3)cc12` [Example 37, (R)-3-(1-((6-cyclopropyl-7-oxo-1-(pyrrolidin-1-yl)-6,7-dihydropyrido[3,4-d]pyridazin-4-yl)amino)ethyl)-2-methylbenzonitrile] came in with an IC50 of 9.2 nM.
`Cc1c(C#N)cccc1[C@@H](C)Nc1nnc(N(C)C)c2cc(=O)n(C3CC3)cc12` [Example 39, (R)-3-(1-((6-cyclopropyl-1-(dimethylamino)-7-oxo-6,7-dihydropyrido[3,4-d]pyridazin-4-yl)amino)ethyl)-2-methylbenzonitrile] returned an IC50 of 23.8 nM.
Take `CCN(CC)c1nnc(N[C@H](C)c2cccc(C#N)c2C)c2cn(C3CC3)c(=O)cc12` [Example 40, (R)-3-(1-((6-cyclopropyl-1-(diethylamino)-7-oxo-6,7-dihydropyrido[3,4-d]pyridazin-4-yl)amino)ethyl)-2-methylbenzonitrile]: the IC50 was 32.5 nM. The IC50 values of the last two molecules are within 1.5-fold of each other.
As to `Cc1c(C#N)cccc1[C@@H](C)Nc1nnc(N2CC(F)(F)C2)c2cc(=O)n(C3CC3)cc12` [Example 41, (R)-3-(1-((6-cyclopropyl-1-(3,3-difluoroazetidin-1-yl)-7-oxo-6,7-dihydropyrido[3,4-d]pyridazin-4-yl)amino)ethyl)-2-methylbenzonitrile], the IC50 was determined as 57.9 nM.
In the case of `Cc1c(C#N)cccc1[C@@H](C)Nc1nnc(N2CCC(F)(F)C2)c2cc(=O)n(C3CC3)cc12` [Example 42, (R)-3-(1-((6-cyclopropyl-1-(3,3-difluoropyrrolidin-1-yl)-7-oxo-6,7-dihydropyrido[3,4-d]pyridazin-4-yl)amino)ethyl)-2-methylbenzonitrile], it took 51.3 nM to reach half-maximal inhibition (IC50). This IC50 and that of the molecule before are within 1.5-fold of each other.
`Cc1c(C#N)cccc1[C@@H](C)Nc1nnc(N2CCC(F)(F)CC2)c2cc(=O)n(C3CC3)cc12` [Example 43, (R)-3-(1-((6-cyclopropyl-1-(4,4-difluoropiperidin-1-yl)-7-oxo-6,7-dihydropyrido[3,4-d]pyridazin-4-yl)amino)ethyl)-2-methylbenzonitrile] yielded an IC50 of 84.2 nM. Against the preceding molecule, the IC50 is about 1.6-fold higher.
Then `Cc1c(C#N)cccc1[C@@H](C)Nc1nnc(N2CCS(=O)(=O)CC2)c2cc(=O)n(C3CC3)cc12` [Example 44, (R)-3-(1-((6-cyclopropyl-1-(1,1-dioxidothiomorpholino)-7-oxo-6,7-dihydropyrido[3,4-d]pyridazin-4-yl)amino)ethyl)-2-methylbenzonitrile], with 44.2 nM.
For `Cc1c(C#N)cccc1[C@@H](C)Nc1nnc(N2CCCC2)c2cc(=O)n(C3(C)CC3)cc12` [Example 45, (R)-2-methyl-3-(1-((6-(1-methylcyclopropyl)-7-oxo-1-(pyrrolidin-1-yl)-6,7-dihydropyrido[3,4-d]pyridazin-4-yl)amino)ethyl)benz onitrile], the IC50 was determined as 6.2 nM.
Regarding `Cc1c(C#N)cccc1[C@@H](C)Nc1nnc(N2CC3CC3C2)c2cc(=O)n(C3(C)CC3)cc12` (stereo partly drawn) [Example 46, 3-((1R)-1-((1-(3-azabicyclo[3.1.0]hexan-3-yl)-6-(1-methylcyclopropyl)-7-oxo-6,7-dihydropyrido[3,4-d]pyridazin-4-yl)amino)ethyl)-2-methylbenzonitrile], the midpoint of inhibition, the IC50, lay at 9.3 nM.
Molecule `Cc1c(C#N)cccc1[C@@H](C)Nc1nnc(N2CCC(F)(F)CC2)c2cc(=O)n(C3(C)CC3)cc12` [Example 47, (R)-3-(1-((1-(4,4-difluoropiperidin-1-yl)-6-(1-methylcyclopropyl)-7-oxo-6,7-dihydropyrido[3,4-d]pyridazin-4-yl)amino)ethyl)-2-methylbenzonitrile] displayed an IC50 of 66.2 nM.
As for `Cc1c(C#N)cccc1[C@@H](C)Nc1nnc(N2CC(F)(F)C2)c2cc(=O)n(C3(C)CC3)cc12` [Example 48, (R)-3-(1-((1-(3,3-difluoroazetidin-1-yl)-6-(1-methylcyclopropyl)-7-oxo-6,7-dihydropyrido[3,4-d]pyridazin-4-yl)amino)ethyl)-2-methylbenzonitrile], the IC50 was determined as 46.5 nM.
For the molecule `Cc1c([C@@H](C)Nc2nnc(N(C)C)c3cc(=O)n(C4CC4)cc23)cccc1C(F)(F)F` [Example 51, (R)-6-cyclopropyl-1-(dimethylamino)-4-((1-(2-methyl-3-(trifluoromethyl)phenyl)ethyl)amino)pyr ido[3,4-d]pyridazin-7(6H)-one], 11.8 nM corresponded to half-maximal inhibition (IC50).
`CCN(CC)c1nnc(N[C@H](C)c2cccc(C(F)(F)F)c2C)c2cn(C3CC3)c(=O)cc12` [Example 53, (R)-6-cyclopropyl-1-(diethylamino)-4-((1-(2-methyl-3-(trifluoromethyl)phenyl)ethyl)amino)pyr ido[3,4-d]pyridazin-7(6H)-one] registered an IC50 of 24.7 nM.
With `Cc1c([C@@H](C)Nc2nnc(N3CC(F)(F)C3)c3cc(=O)n(C4CC4)cc23)cccc1C(F)(F)F` [Example 54, (R)-6-cyclopropyl-1-(3,3-difluoroazetidin-1-yl)-4-((1-(2-methyl-3-(trifluoromethyl)phenyl)ethyl)amino)pyr ido[3,4-d]pyridazin-7(6H)-one], half-maximal inhibition (IC50) was put at 50.3 nM.
In turn, `Cc1c([C@@H](C)Nc2nnc(N3CCC(F)(F)C3)c3cc(=O)n(C4CC4)cc23)cccc1C(F)(F)F` [Example 55, (R)-6-cyclopropyl-1-(3,3-difluoropyrrolidin-1-yl)-4-((1-(2-methyl-3-(trifluoromethyl)phenyl)ethyl)amino)pyr ido[3,4-d]pyridazin-7(6H)-one] displayed an IC50 of 49.2 nM.
In turn, `Cc1c([C@@H](C)Nc2nnc(N3CC4CC4C3)c3cc(=O)n(C4CC4)cc23)cccc1C(F)(F)F` (stereo partly drawn) [Example 56, 1-(3-azabicyclo[3.1.0]hexan-3-yl)-6-cyclopropyl-4-(((R)-1-(2-methyl-3-(trifluoromethyl)phenyl)ethyl)amino)pyr ido[3,4-d]pyridazin-7(6H)-one] returned an IC50 of 10.6 nM.
In the case of `Cc1c([C@@H](C)Nc2nnc(N3CCSC3)c3cc(=O)n(C4CC4)cc23)cccc1C(F)(F)F` [Example 57, (R)-6-cyclopropyl-4-((1-(2-methyl-3-(trifluoromethyl)phenyl)ethyl)amino)-1-(thiazolidin-3-yl)pyrido[3,4-d]pyridazin-7(6H)-one], the IC50 was found to be 25.6 nM.

The values are drawn from patent EP4722213A1, “NITROGEN-CONTAINING FUNCTIONAL GROUP-SUBSTITUTED PYRIDAZINOPYRIDONE DERIVATIVE AND USE THEREOF” (Sichuan Huiyu Pharmaceutical Co., Ltd., priority 2023, dated 2024).
